Test results: ChEMBL document CHEMBL1201862, “PubChem BioAssay data set” (2004)
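Test compounds were applied to cells in 96-well plates for 48 hours at 5 doses. The concentration for 50% growth inhibition is given as GI50.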 Activity calls are given as the source filed them. Rule as the data show it: active = GI50 up to about 1.1 µM and inactive = higher.

How the values were obtained:
Experiment in all cases: NCI tumour cell line growth inhibition, 48 h
CAKI-1 = system: CAKI-1
HL-60 = system: HL-60
HOP-92 = system: HOP-92
Hs-578T = system: Hs-578T
IGROV-1 = system: IGROV-1
MCF7 = system: MCF7
MDA-MB-231 = system: MDA-MB-231
MDA-MB-435 = system: MDA-MB-435
MDA-N = system: MDA-N
MOLT-4 = system: MOLT-4
NCI-H460 = system: NCI-H460
OVCAR-5 = system: OVCAR-5
SF-268 = system: SF-268
SK-MEL-28 = system: SK-MEL-28
SK-MEL-2 = system: SK-MEL-2
SK-OV-3 = system: SK-OV-3
SNB-19 = system: SNB-19
T47D = system: T47D
HCC 2998 = system: HCC 2998
SR = system: SR

Compound	GI50 (CAKI-1)	GI50 (HL-60)	GI50 (HOP-92)	GI50 (Hs-578T)	GI50 (IGROV-1)	GI50 (MCF7)	GI50 (MDA-MB-231)	GI50 (MDA-MB-435)	GI50 (MDA-N)	GI50 (MOLT-4)	GI50 (NCI-H460)	GI50 (OVCAR-5)	GI50 (SF-268)	GI50 (SK-MEL-28)	GI50 (SK-MEL-2)	GI50 (SK-OV-3)	GI50 (SNB-19)	GI50 (T47D)	GI50 (HCC 2998)	GI50 (SR)
COC(CN(C=O)[C@@H](c1ccc(Cl)cc1)c1cc2ccccc2o1)OC	15.8 µM (inactive)	20.5 µM (inactive)	16.7 µM (inactive)	14 µM (inactive)	14.8 µM (inactive)	15.5 µM (inactive)	18.5 µM (inactive)	18.5 µM (inactive)	17.1 µM (inactive)	17.8 µM (inactive)	15.5 µM (inactive)	15.8 µM (inactive)	15.3 µM (inactive)	18.5 µM (inactive)	16.7 µM (inactive)	0.841 µM (active)	19.4 µM (inactive)	11.6 µM (inactive)		
Cc1ccc(/C=N/Nc2ncccn2)s1	> 100 µM (inactive)		> 100 µM (inactive)	> 100 µM (inactive)	> 100 µM (inactive)	> 100 µM (inactive)	> 100 µM (inactive)	> 100 µM (inactive)	> 100 µM (inactive)			> 100 µM (inactive)	> 100 µM (inactive)	> 100 µM (inactive)	> 100 µM (inactive)	> 100 µM (inactive)	> 100 µM (inactive)	> 100 µM (inactive)	> 100 µM (inactive)	
CCOP(C)(=O)C(Nc1ccc(F)cc1)c1ccc(F)cc1 (configuration not stated)	> 100 µM (inactive)	> 100 µM (inactive)	> 100 µM (inactive)	> 100 µM (inactive)	> 100 µM (inactive)		> 100 µM (inactive)	> 100 µM (inactive)	> 100 µM (inactive)	> 100 µM (inactive)	> 100 µM (inactive)	> 100 µM (inactive)	> 100 µM (inactive)	> 100 µM (inactive)	> 100 µM (inactive)	> 100 µM (inactive)	> 100 µM (inactive)	> 100 µM (inactive)	> 100 µM (inactive)	> 100 µM (inactive)
Cc1csc2nc(-c3cccc([N+](=O)[O-])c3)c(/C=N/N=C(N)N)n12	2.73 µM (inactive)	1.25 µM (inactive)	0.0968 µM (active)	2.18 µM (inactive)	1.81 µM (inactive)	1.82 µM (inactive)	1.55 µM (inactive)	1.66 µM (inactive)	1.67 µM (inactive)		3.2 µM (inactive)	1.63 µM (inactive)	1.82 µM (inactive)	1.71 µM (inactive)	1.77 µM (inactive)	1.82 µM (inactive)	1.9 µM (inactive)	1.87 µM (inactive)	< 0.01 µM (active)	
C1CCSCCCCSCCCCSCCCCSC1	> 100 µM (inactive)		> 100 µM (inactive)	> 100 µM (inactive)	> 100 µM (inactive)	> 100 µM (inactive)	> 100 µM (inactive)	> 100 µM (inactive)	> 100 µM (inactive)		> 100 µM (inactive)	> 100 µM (inactive)	> 100 µM (inactive)	> 100 µM (inactive)	> 100 µM (inactive)	> 100 µM (inactive)	> 100 µM (inactive)	> 100 µM (inactive)	> 100 µM (inactive)	
CC1=CC(C)(C)NN1C1=NS(=O)(=O)c2ccccc2N1C	> 100 µM (inactive)	> 100 µM (inactive)	> 100 µM (inactive)	> 100 µM (inactive)	> 100 µM (inactive)	> 100 µM (inactive)	> 100 µM (inactive)	> 100 µM (inactive)	> 100 µM (inactive)	47.9 µM (inactive)	> 100 µM (inactive)	> 100 µM (inactive)	> 100 µM (inactive)	> 100 µM (inactive)	> 100 µM (inactive)	> 100 µM (inactive)	> 100 µM (inactive)	> 100 µM (inactive)	> 100 µM (inactive)	
